# Assays:
# Assay in all cases: in vitro antibacterial evaluation, MIC by broth dilution
# Assay type in all cases: cell-based
# [1] = test system: Streptococcus sp.; details: broth dilution, 18 hours at 35° C.; for MIC Streptococcus pneumoniae (ATCC 6301): strain ATCC 6301; for MIC Streptococcus pneumoniae (GC 1894): strain GC 1894; for MIC Streptococcus pyogenes (GC 4563): strain GC 4563; for MIC Streptococcus agalactiae (GC 4564): strain GC 4564; for MIC Streptococcus pneumoniae (GC 4565): strain GC 4565
# Procedure: (§1) Methods for in vitro Antibacterial Evaluation (Table 1)
# (§2) The minimum inhibitory concentration (MIC), the lowest concentration of the antibiotic which inhibits growth of the test organism, is determined by the broth dilution method using Muller-Hinton II […] (Baltimore Biological Laboratories) following the recommendations of the National Committee for Clinical Laboratory Standards [Methods for dilution antimicrobial susceptibility tests for bacteria that grow aerobically, approved standard M7-A2, National Committee for Clinical Laboratory Standards, Villanova, Pa.].
# (§3) An inoculum level of 5×10^5 CFU/mL, and a range of antibiotic concentrations (64-0.06 μg/mL) is used. […] The test organisms include a spectrum of Gram-positive bacteria comprised of Staphylococcus sp., Streptococcus sp. and Enterococcus sp. These organisms include recent clinical isolates that are resistant to methicillin, penicillin and/or vancomycin.
# [2] = test system: Staphylococcus sp.; details: broth dilution, 18 hours at 35° C.; for MIC Staphylococcus aureus (ATCC 29213): strain ATCC 29213; for MIC Staphylococcus aureus (GC 1131): strain GC 1131; for MIC Staphylococcus aureus (GC 3051): strain GC 3051; for MIC Staphylococcus aureus (GC 3053): strain GC 3053; for MIC Staphylococcus aureus (GC 4541): strain GC 4541; for MIC Staphylococcus aureus (GC 4542): strain GC 4542; for MIC Staphylococcus aureus-SMITH (GC 4543): strain GC 4543; for MIC Staphylococcus aureus (GC 4544): strain GC 4544; for MIC Staphylococcus aureus (GC 4545): strain GC 4545; for MIC Staphylococcus haemolyticus (GC 4546): strain GC 4546; for MIC Coagulase Negative Staphylococcus (GC 4547): strain GC 4547; for MIC Coagulase Negative Staphylococcus (GC 4548): strain GC 4548; for MIC Coagulase Negative Staphylococcus (GC 4549): strain GC 4549; for MIC Coagulase Negative Staphylococcus (GC 4551): strain GC 4551; for MIC Coagulase Negative Staphylococcus (GC 6257): strain GC 6257
# Procedure: as §1, §2, §3
# [3] = test system: Enterococcus sp.; details: broth dilution, 18 hours at 35° C.; for MIC Enterococcus faecalis (ATCC 29212): strain ATCC 29212; for MIC Enterococcus faecalis (GC 2242): strain GC 2242; for MIC Enterococcus faecium (GC 2243): strain GC 2243; for MIC Enterococcus faecalis (GC 2691): strain GC 2691; for MIC Enterococcus faecalis (GC 3059): strain GC 3059; for MIC Enterococcus faecalis (GC 4552): strain GC 4552; for MIC Enterococcus faecalis (GC 4553): strain GC 4553; for MIC Enterococcus faecalis (GC 4554): strain GC 4554; for MIC Enterococcus faecium (GC 4556): strain GC 4556; for MIC Enterococcus faecium (GC 4557): strain GC 4557; for MIC Enterococcus avium (GC 4558): strain GC 4558; for MIC Enterococcus faecalis (GC 6189): strain GC 6189
# Procedure: as §1, §2, §3
# [4] = test system: Escherichia coli; details: broth dilution, 18 hours at 35° C.; for MIC Escherichia coli (ATCC 25922): strain ATCC 25922; for MIC Escherichia coli (GC 4559): strain GC 4559; for MIC Escherichia coli (GC 4560): strain GC 4560
# How it was run: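 MIC is the lowest antibiotic concentration (tested 64-0.06 μg/mL) preventing growth of a 5×10^5 CFU/mL inoculum. Determined by broth dilution in Mueller-Hinton II medium following NCCLS standard M7-A2.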
MIC Streptococcus pneumoniae (ATCC 6301) [1] [µg/mL],MIC Streptococcus pneumoniae (GC 1894) [1] [µg/mL],MIC Streptococcus pyogenes (GC 4563) [1] [µg/mL],MIC Streptococcus agalactiae (GC 4564) [1] [µg/mL],MIC Streptococcus pneumoniae (GC 4565) [1] [µg/mL],MIC Staphylococcus aureus (ATCC 29213) [2] [µg/mL],MIC Staphylococcus aureus (GC 1131) [2] [µg/mL],MIC Staphylococcus aureus (GC 3051) [2] [µg/mL],MIC Staphylococcus aureus (GC 3053) [2] [µg/mL],MIC Staphylococcus aureus (GC 4541) [2] [µg/mL],MIC Staphylococcus aureus (GC 4542) [2] [µg/mL],MIC Staphylococcus aureus-SMITH (GC 4543) [2] [µg/mL],MIC Staphylococcus aureus (GC 4544) [2] [µg/mL],MIC Staphylococcus aureus (GC 4545) [2] [µg/mL],MIC Coagulase Negative Staphylococcus (GC 4547) [2] [µg/mL],MIC Coagulase Negative Staphylococcus (GC 4548) [2] [µg/mL],MIC Coagulase Negative Staphylococcus (GC 4549) [2] [µg/mL],MIC Coagulase Negative Staphylococcus (GC 4551) [2] [µg/mL],MIC Coagulase Negative Staphylococcus (GC 6257) [2] [µg/mL],Compound,MIC Staphylococcus haemolyticus (GC 4546) [2] [µg/mL],other results
>128,128,>128,128,64,>128,>128,>128,>128,>128,>128,>128,>128,>128,>128,>128,>128,>128,>128,"CCC(=O)Nc1cc(CC2NC(=O)C(C(C)c3ccccc3)NC(=O)CNC(=O)C(CO)NC(=O)C(C(O)C3CNC(=N)N3C3OC(CO)C(O)C(O)C3O)NC(=O)C(C(O)C3CNC(=N)N3)NC2=O)ccc1O (stereo not drawn) [Example 14, Cyclo[glycyl-β-methylphenylalanyl-3-(propanamido)tyrosyl-3-(2-iminoimidazolidin-4-yl)seryl-3-(3-hexopyranosyl-2-iminoimidazolidin-4-yl)serylseryl]]",>128,MIC Enterococcus faecalis (ATCC 29212) [3]: >128 µg/mL; MIC Enterococcus faecalis (GC 2242) [3]: >128 µg/mL; MIC Enterococcus faecium (GC 2243) [3]: >128 µg/mL; MIC Enterococcus faecalis (GC 2691) [3]: >128 µg/mL; MIC Enterococcus faecalis (GC 3059) [3]: >128 µg/mL; MIC Enterococcus faecalis (GC 4552) [3]: >128 µg/mL; MIC Enterococcus faecalis (GC 4553) [3]: >128 µg/mL; MIC Enterococcus faecalis (GC 4554) [3]: >128 µg/mL; MIC Enterococcus faecium (GC 4556) [3]: >128 µg/mL; MIC Enterococcus faecium (GC 4557) [3]: >128 µg/mL; MIC Enterococcus avium (GC 4558) [3]: 128 µg/mL; MIC Enterococcus faecalis (GC 6189) [3]: >128 µg/mL; MIC Escherichia coli (ATCC 25922) [4]: >128 µg/mL; MIC Escherichia coli (GC 4559) [4]: >128 µg/mL; MIC Escherichia coli (GC 4560) [4]: 128 µg/mL
>128,128,>128,128,64,>128,>128,>128,>128,>128,>128,>128,>128,>128,>128,>128,>128,>128,>128,"CC(C)C(=O)Nc1cc(CC2NC(=O)C(C(C)c3ccccc3)NC(=O)CNC(=O)C(CO)NC(=O)C(C(O)C3CNC(=N)N3C3OC(CO)C(O)C(O)C3O)NC(=O)C(C(O)C3CNC(=N)N3)NC2=O)ccc1O (stereo not drawn) [Example 15, Cyclo[glycyl-β-methylphenylalanyl-3-(2-methylpropanamido)tyrosyl-3-(2-iminoimidazolidin-4-yl)seryl-3-(3-hexopyranosyl-2-iminoimidazolidin-4-yl)serylseryl]]",>128,MIC Enterococcus faecalis (ATCC 29212) [3]: >128 µg/mL; MIC Enterococcus faecalis (GC 2242) [3]: >128 µg/mL; MIC Enterococcus faecium (GC 2243) [3]: >128 µg/mL; MIC Enterococcus faecalis (GC 2691) [3]: >128 µg/mL; MIC Enterococcus faecalis (GC 3059) [3]: >128 µg/mL; MIC Enterococcus faecalis (GC 4552) [3]: >128 µg/mL; MIC Enterococcus faecalis (GC 4553) [3]: >128 µg/mL; MIC Enterococcus faecalis (GC 4554) [3]: >128 µg/mL; MIC Enterococcus faecium (GC 4556) [3]: >128 µg/mL; MIC Enterococcus faecium (GC 4557) [3]: >128 µg/mL; MIC Enterococcus avium (GC 4558) [3]: 128 µg/mL; MIC Enterococcus faecalis (GC 6189) [3]: >128 µg/mL; MIC Escherichia coli (ATCC 25922) [4]: >128 µg/mL; MIC Escherichia coli (GC 4559) [4]: >128 µg/mL; MIC Escherichia coli (GC 4560) [4]: 128 µg/mL
128,64,16,64,128,128,128,128,128,64,128,64,128,32,16,32,4,32,8,"CCCCCCC(=O)Nc1cc(CC2NC(=O)C(C(C)c3ccccc3)NC(=O)CNC(=O)C(CO)NC(=O)C(C(O)C3CNC(=N)N3C3OC(CO)C(O)C(O)C3O)NC(=O)C(C(O)C3CNC(=N)N3)NC2=O)ccc1O (stereo not drawn) [Example 16, Cyclo[glycyl-β-methylphenylalanyl-3-(heptanamido)tyrosyl-3-(2-iminoimidazolidin-4-yl)seryl-3-(3-hexopyranosyl-2-iminoimidazolidin-4-yl)serylseryl]]",8,MIC Enterococcus faecalis (ATCC 29212) [3]: >128 µg/mL; MIC Enterococcus faecalis (GC 2242) [3]: >128 µg/mL; MIC Enterococcus faecium (GC 2243) [3]: 128 µg/mL; MIC Enterococcus faecalis (GC 2691) [3]: >128 µg/mL; MIC Enterococcus faecalis (GC 3059) [3]: >128 µg/mL; MIC Enterococcus faecalis (GC 4552) [3]: >128 µg/mL; MIC Enterococcus faecalis (GC 4553) [3]: 64 µg/mL; MIC Enterococcus faecalis (GC 4554) [3]: >128 µg/mL; MIC Enterococcus faecium (GC 4556) [3]: >128 µg/mL; MIC Enterococcus faecium (GC 4557) [3]: 16 µg/mL; MIC Enterococcus avium (GC 4558) [3]: 128 µg/mL; MIC Enterococcus faecalis (GC 6189) [3]: >128 µg/mL; MIC Escherichia coli (ATCC 25922) [4]: 32 µg/mL; MIC Escherichia coli (GC 4559) [4]: 32 µg/mL; MIC Escherichia coli (GC 4560) [4]: 8 µg/mL

# From patent US6914045B2, “Glycopeptide antibiotics” (Wyeth Holdings Corporation, priority 2001, dated 2005)
